Experimental data: patent US6426229B1, “Chelating agent and detergent comprising the same” (Mitsubishi Rayon Co., Ltd., priority 1995, dated 2002)

Assay: Compression strength (hardening property) of powder stored under load for 2 months
Type: physicochemical
Conditions: 20-30° C., relative humidity 40-70%
Protocol: Method for the Measurement of Compression Strength
(1) A test sample (500 g) is put in a poly-ethylene bag of 20 cm×20 cm in a room at a temperature of 20-30° C. and a relative humidity of 40-70%. The powder is levelled to an area of 20 cm×20 cm and air is forced out of the bag, and, then, the bag is sealed. This bag is further put in a kraft bag and this kraft bag is sealed.
(2) The kraft bag of (1) is placed horizontally on a flat plate and a plate is put thereon. […]
(3) With keeping the temperature of 20-30° C. and the relative humidity of 40-70%, the test sample is taken out after lapse of 2 months from the starting of application of load. Several test pieces (4 cm long×4 cm broad×2 cm high) are cut out from the sample.

[1] = Load 100 (table head [Kg]; text 100 g/cm^2)
[2] = Load 200 (table head [Kg]; text 200 g/cm^2)
[3] = Load 300 (table head [Kg]; text 300 g/cm^2)

Compound	Compression strength after stored for 2 months [1] [Kg/cm^2]	also measured
O=C([O-])C[C@H](NCCN[C@@H](CC(=O)[O-])C(=O)[O-])C(=O)[O-].[Na+].[Na+].[Ni+2] [compound 28, nickel disodium (S,S)-ethylenediaminedisuccinate, reference compound]	2.5	
O=C([O-])CN[C@@H](CC(=O)[O-])C(=O)[O-].[Na+].[Na+].[Na+] [compound 1, trisodium salt of (S)-aspartic acid-N-monoacetic acid, reference compound]	2.6	
O=C(O)CN(CCS(=O)(=O)O)CC(=O)O [Example 34, taurine-N,N-diacetic acid]		Compression strength after stored for 2 months [2]: 1.2 Kg/cm^2
O=C([O-])CC(NCCNC(CC(=O)[O-])C(=O)[O-])C(=O)[O-].[Na+].[Na+].[Na+].[Na+] (stereo not shown) [Example 51, tetrasodium ethylenediaminedisuccinate]	1.2	
iron salt of anthranilic acid-N,N-diacetic acid [Example 45]		Compression strength after stored for 2 months [3]: 0.8 Kg/cm^2
O=C([O-])CC(NCCCNC(CC(=O)[O-])C(=O)[O-])C(=O)[O-].[Na+].[Na+].[Na+].[Na+] (stereo not shown) [Example 48, tetrasodium 1,3-propanediaminedisuccinate]		Compression strength after stored for 2 months [2]: 1.0 Kg/cm^2
O=C([O-])C[C@H](NCCCN[C@@H](CC(=O)[O-])C(=O)[O-])C(=O)[O-].[Na+].[Na+].[Na+].[Na+] [Example 59, tetrasodium (S,S)-1,3-propanediaminedisuccinate]		Compression strength after stored for 2 months [3]: 1.1 Kg/cm^2
O=C(O)C[C@H](NCC(O)CN[C@@H](CC(=O)O)C(=O)O)C(=O)O [Example 70, (S,S)-2-hydroxy-1,3-propanediaminedisuccinic acid]	0.8	
O=C([O-])C[C@H](NCCCN[C@@H](CC(=O)[O-])C(=O)[O-])C(=O)[O-].[Na+].[Na+].[Na+].[Na+] [compound 19, tetrasodium (S,S)-1,3-propanediaminedisuccinate, reference compound]	2.9	
O=C(O)C[C@H](NCCCN[C@@H](CC(=O)O)C(=O)O)C(=O)O [compound 24, (S,S)-1,3-propanediaminedisuccinic acid, reference compound]	2.8	
O=C([O-])C[C@H](NCCCN[C@@H](CC(=O)[O-])C(=O)[O-])C(=O)[O-].[Cu+2].[Na+].[Na+] [Example 83, copper disodium (S,S)-1,3-propanediaminedisuccinate]		Compression strength after stored for 2 months [2]: 1.3 Kg/cm^2
O=C(O)CC(NCCCNC(CC(=O)O)C(=O)O)C(=O)O (stereo not shown) [Example 73, 1,3-propanediaminedisuccinic acid]		Compression strength after stored for 2 months [3]: 1.1 Kg/cm^2
O=C([O-])CN(CCS(=O)(=O)[O-])CC(=O)[O-].[Na+].[Na+].[Na+] [Example 31, trisodium salt of taurine-N,N-diacetic acid]		Compression strength after stored for 2 months [3]: 1.0 Kg/cm^2
O=C([O-])C[C@H](NCC(O)CN[C@@H](CC(=O)[O-])C(=O)[O-])C(=O)[O-].[Na+].[Na+].[Na+].[Na+] [compound 20, tetrasodium (S,S)-2-hydroxy-1,3-propanediaminedisuccinate, reference compound]	2.7	
O=C([O-])C[C@H](NCCCN[C@@H](CC(=O)[O-])C(=O)[O-])C(=O)[O-].[Na+].[Na+].[Na+].[Na+] [Example 54, tetrasodium (S,S)-1,3-propanediaminedisuccinate]	0.9	
O=C([O-])CCN[C@@H](CC(=O)[O-])C(=O)[O-].[Na+].[Na+].[Na+] [Example 2, trisodium salt of (S)-aspartic acid-N-monopropionic acid]		Compression strength after stored for 2 months [2]: 1.0 Kg/cm^2
